The conditions of data set [1]: pH <7; cited from earlier work.
The subject of a further data set is cancer cell lines. The conditions noted are these: cited from earlier work.
Data set [2] relates to Coxsackie A strains A7 or A21. The experiment in a line: organism not typed. In kind it is cell-based. The conditions noted are these: MRC5, read-out: EC50 Coxsackie A.
In another data set the test system is panel of RNA viruses. In kind it is cell-based.
For another data set, the system named is replicon cells. To be noted: human.
The test system of data set [3] is HCV (1b) subgenomic replicon. The format is cell-based.

Some results are limits rather than exact numbers.

As for `C[C@@]1(n2cnc3c(N)ncnc32)O[C@H](CO)[C@@H](O)[C@H]1O` [1′-C-Me adenosine], in data set [1], the “stability in aqueous solutions” value was “rapidly degraded”. With `Nc1ncnc2c1ccn2[C@@H]1O[C@H](CO)[C@@H](O)[C@H]1O` [Compound 1, 7-Deazaadenosine], the “cytotoxicity (in words)” value in the data set with cancer cell lines was “cytotoxic”. The term EC50 denotes the concentration at which the effect is half-maximal. Regarding `N#C[C@@]1(c2ccc3c(N)ncnn23)O[C@H](CO)[C@@H](O)[C@H]1O` [Compound 3a], in data set [2], the EC50 is more than 30 µM. The “antiviral activity against panel of RNA viruses (in words)” value (from here on “antiviral activity against panel”) in the data set on panel of RNA viruses is on record as “broader spectrum activity”. A word on the CC50: it is the concentration at which the toxic effect on the cells reaches its halfway point. A higher CC50 goes with lower toxicity to the cells. Regarding `C[C@@]1(c2ccc3c(N)ncnn23)O[C@H](CO)[C@@H](O)[C@H]1O` [Compound 3b], the half-maximal effective concentration (EC50) in data set [2] was more than 30 µM. This compound came in with a CC50 in the data set on replicon cells of more than 89 µM. Besides, the “antiviral activity against panel” value in the data set with panel of RNA viruses is “reduced potency and a narrower spectrum of antiviral activity”.

Regarding `C=C[C@@]1(c2ccc3c(N)ncnn23)O[C@H](CO)[C@@H](O)[C@H]1O` [Compound 3c], the EC50 in data set [2] was more than 30 µM. In addition, in the data set on panel of RNA viruses, the “antiviral activity against panel” value is “reduced potency and a narrower spectrum of antiviral activity”. As for `C#C[C@@]1(c2ccc3c(N)ncnn23)O[C@H](CO)[C@@H](O)[C@H]1O` [Compound 3d], the concentration for a half-maximal effect (EC50) in data set [2] is more than 30 µM. The “antiviral activity against panel” value in the data set with panel of RNA viruses is listed as “no activity”. Regarding `CC(C)(C)C(=O)SCCOP(=O)(OCCSC(=O)C(C)(C)C)OC[C@H]1O[C@@](C#N)(c2ccc3c(N)ncnn23)[C@H](O)[C@@H]1O` [Compound 9a], the “replicon activity compared to the parent nucleosides (in words)” value in data set [3] is “markedly enhanced replicon activity”. As for `CC(C)(C)C(=O)SCCOP(=O)(OCCSC(=O)C(C)(C)C)OC[C@H]1O[C@@](C)(c2ccc3c(N)ncnn23)[C@H](O)[C@@H]1O` [Compound 9b], in data set [3], the “replicon activity compared to the parent nucleosides (in words)” value is recorded as “markedly enhanced replicon activity” and the “selectivity index (CC50/EC50)” value is reported as “less than 10 fold”. As for `C=C[C@@]1(c2ccc3c(N)ncnn23)O[C@H](COP(=O)(OCCSC(=O)C(C)(C)C)OCCSC(=O)C(C)(C)C)[C@@H](O)[C@H]1O` [Compound 9c], the “selectivity index (CC50/EC50)” value in data set [3] is given as “less than 10 fold”.

`C#C[C@@]1(c2ccc3c(N)ncnn23)O[C@H](COP(=O)(OCCSC(=O)C(C)(C)C)OCCSC(=O)C(C)(C)C)[C@@H](O)[C@H]1O` [Compound 9d]: the “selectivity index (CC50/EC50)” value in data set [3] is “less than 10 fold”.

Source of the values: paper PMC7126871 (Bioorganic & Medicinal Chemistry Letters, 2012).
